Patent CN114767685A, “四氢叶酸在抑菌或者预防或治疗眼部疾病中的用途” (Peking University Third Hospital Peking University Third …, priority 2022, dated 2022)

How the values were obtained:
Fusarium (镰刀菌) [1] = assay: Inhibition of Fusarium colony growth on solid medium with proline as sole nitrogen source (pro- medium); assay type: cell-based, Fusarium (CGMCC3.5840); conditions: 29℃, 72 h, Figure 2
Fusarium (镰刀菌) [2] = assay: Fusarium growth curve (OD) in liquid amino acid media, 96-well plate; assay type: cell-based; conditions: THFA 10 mM, each amino acid group, 29℃, 72 h, Figure 5B-F
Fusarium (镰刀菌) [3] = assay: Inhibition of Fusarium on solid media with mixed amino acids as nitrogen source (simulated cornea); assay type: cell-based; conditions: THFA 10 mM, cultured as Example 1

## Nc1nc2c(c(=O)[nH]1)N[C@H](CNc1ccc(C(=O)N[C@@H](CCC(=O)O)C(=O)O)cc1)CN2 [THFA, 5,6,7,8-四氢叶酸]
Fusarium (镰刀菌) [1]; THFA 0-20 mM
  correlation of degree of inhibition with THFA concentration: 抑制程度与THFA浓度具有相关性
Fusarium (镰刀菌) [1]; THFA 5 mM
  colony diameter: 明显小于2.5mM、1.25mM和0mM组
Fusarium (镰刀菌) [1]; THFA 10 mM
  colony diameter: 均显著小于5mM组
Fusarium (镰刀菌) [1]; THFA 20 mM
  colony diameter: 均显著小于5mM组
Fusarium (镰刀菌) [1]; THFA 1.25, 2.5, 5, 10, 20 mM vs 0 mM
  inhibition of Fusarium growth: 镰刀菌的生长受到明显抑制
Fusarium (镰刀菌) [2]
  Fusarium growth (absorbance, OD, growth curve): 镰刀菌生长均明显下降
Fusarium (镰刀菌) [3]; solid media with different mixed amino acid nitrogen sources (taurine, glutamine, glycine, proline), Figure 4
  inhibition of Fusarium growth: 均能够显著抑制镰刀菌生长
Fusarium (镰刀菌) [3]; solid media with different mixed amino acids, Figure 4B-D
  colony pigment: 色素明显减弱
